# Earlier results, collected in patent US12060328B2, “Co-crystals or salts of psilocybin and methods of treatment therewith” (RESET PHARMACEUTICALS, INC., priority 2022, dated 2024).
# Conditions: cited from earlier work; for pKa (acidic) / pKa (basic): co-former property, Table 1
compound,measurement,setting,value
NC(CS)C(=O)O (racemic) [DL-cysteine],pKa (acidic),,1.71
same,pKa (basic),,8.33
OC[C@@H](O)[C@@H](O)[C@H](O)[C@H](O)CO [D-mannitol],pKa (acidic),,13.50
O=C1CC[C@@H](C(=O)O)N1 [L-pyroglutamic acid],pKa (acidic),,3.48
O=C(O)[C@H](O)[C@@H](O)[C@H](O)[C@H](O)CO [gluconic acid],pKa (acidic),,3.6
NC(=O)c1ccncc1 [isonicotinamide],pKa (basic),,3.61
OC[C@@H](O)[C@@H](O)CO [meso-erythritol],pKa (acidic),,13.90
"CCCOC(=O)c1cc(O)c(O)c(O)c1 [propyl 3,4,5-trihydroxybenzoate]",pKa (acidic),,7.94
"CN(C)CCc1c[nH]c2cccc(OP(=O)(O)O)c12 [psilocybin, [3-(2-dimethylaminoethyl)-1H-indol-4-yl]dihydrogen phosphate]",pKa3 (tertiary amine) (estimated),"reported value, estimated",10.4
same,pKa1 (1st phosphate oxygen),reported value,1.3
same,pKa2 (2nd phosphate oxygen),reported value,6.5
Cn1c(=O)c2[nH]cnc2n(C)c1=O [theophylline],pKa (acidic),,8.81
NC(CO)(CO)CO [tromethamine],pKa (basic),,8.95
NC(N)=O [urea],pKa (basic),,0.10
